The record followed here is paper PMC12463120, “Phenylalanine‐Based DNA‐Encoded Chemical Libraries for the Discovery of Potent and Selective Small Organic Ligands Against Markers of Cancer and Immune Cells” (Advanced Science, 2025).

Each structure is given as a SMILES string.

Experiment [1] deals with T1, hCAIX (Homo sapiens, UniProt Q16790).
T1 construct: made in house; host or cells: CHO cells
Nature of the experiment: Surface plasmon resonance (SPR) on hCAIX. The experiment is classed as binding. Conditions: for Kd: 500 nM to 250 nM, CM5 chip. How it is done: 2.14 Surface plasmon resonance (SPR)
SPR measurements were performed on a Biacore X100. Human recombinant ACP3 or CAIX were immobilized on a CM5 chip (Cytiva, #BR100012, both flow cells), reaching ~4000 RUs, using the EDC/NHS protocol provided by the manufacturer. The target protein immobilized on the reference flow cell was treated with denaturing solution (0.85% H3PO4, 10 mM NaOH, and 50 mM HCl). PBS (pH 7.4) was used as running buffer. Test compounds were injected at different concentrations in running buffer, according to a multicycle analysis with the following settings: 120 seconds contact time and 5´000 seconds (CAIX measurements) or 15´ 000 seconds (ACP3 measurements) dissociation time at a flow rate of 10 μL/min. Sensograms were plotted with GraphPad Prism (version 9, GraphPad Software) and fitted using the Biacore X100 Evaluation Software. […]
30 min at rt and washed with PBS (3 x 200 μL/well). The immobilized protein was incubated for 30 min in the dark with serial dilution of FITC-labelled compounds and washed with PBS (3 x 200 μL/well). A solution of rabbit polyclonal FITC antibody-horseradish peroxidase (anti-FITC-HRP, Abcam, #ab196968) 0.25 μg/mL in 2% milk-PBS was added to each well (100 μL/well) and incubated for additional 30 min in the dark at rt. Each well was washed with PBS 0.1% Tween (3 x 200 μL/ well) and with PBS (3 x 200 μL/ well). The substrate 3,3′,5,5′ -tetramethylbenzidine (TMB, Sigma Aldrich #T0440) was added (100 μL /well) and developed in the dark for 0.5-1 min. The reaction was stopped by adding 50 μL of an aqueous solution of H2SO4 1M. The absorbance was measured at 450 nm (reference level, 620–650 nm) with a Spark multimode microplate reader (Tecan Life Sciences). The experiments were […]
In general terms: In SPR one partner is held on a chip, and binding of the other changes the refractive index at the surface.

In experiment [2] the target is T2, human CAIX (hCAIX) (Homo sapiens, UniProt Q16790).
T2 construct: made in house; host or cells: CHO cells
In words: Fluorescence polarization (FP) affinity against hCAIX. Conditions: fluorescein derivatives. The format is binding.
Experimental: Affinities of fluorescein‐bearing hits were determined by FP or ELISA measurements.
2.11 Fluorescence polarization (FP) measurements with fluoresceine-labelled
A dilution series of target proteins (i.e., PSMA, GCP3, CAIX, CAII) in the respective formulation buffer were separately prepared in a black 384-well plate (non-binding Greiner small volume plate). Test compounds functionalized with fluorescein were diluted to a concentration between 5 and 10 nM (5 μL) and incubated for 15 min with the protein (final volume corresponding to 10 µL). The fluorophore was excited at 485 nm, and anisotropy was measured at 535 nm on a Spectra Max Paradigm multimode plate reader (Tecan). The experiments were performed in triplicate. KD values measured using this FP method can differ from dissociation constants obtained by other physical methods (e.g., surface plasmon resonance, see section below).

As for `NS(=O)(=O)c1ccc(-c2cccc(C[C@@H](NC(=O)CCC(=O)N[C@@H](CCCCNC(=O)CC[C@H](C(=O)O)N3CCN(CC(=O)O)CCN(CC(=O)O)CCN(CC(=O)O)CC3)C(=O)O)C(=O)NCC3(c4cccs4)CCOCC3)c2)cc1` [compound 22], in experiment [1], the “association rate (kon) on hCAIX by SPR” value is listed as “fast association rates” and the Kd worked out at 50 nM.

For `NS(=O)(=O)c1ccc(-c2cccc(C[C@H](NC(=O)CCC(=O)N[C@@H](CCCCNC(=S)Nc3ccc4c(c3)C(=O)OC43c4ccc(O)cc4Oc4cc(O)ccc43)C(=O)O)C(=O)NCC3(c4cccs4)CCOCC3)c2)cc1` [compound 20], the dissociation constant Kd in experiment [2] turned out to be 2.46 nM.

For the compound `NS(=O)(=O)c1nnc(Nc2cccc(C[C@@H](NC(=O)CCC(=O)N[C@@H](CCCCNC(=O)CC[C@H](C(=O)O)N3CCN(CC(=O)O)CCN(CC(=O)O)CCN(CC(=O)O)CC3)C(=O)O)C(=O)NCC3(c4cccs4)CCOCC3)c2)s1` [compound 25], in experiment [1], the “association rate (kon) on hCAIX by SPR” value is given as “fast association rates”, the “dissociation rate (koff) on hCAIX by SPR” value is given as “slower dissociation rate” and the Kd came to 13 nM.

On to `NS(=O)(=O)c1nnc(Nc2cccc(C[C@H](NC(=O)CCC(=O)N[C@@H](CCCCNC(=S)Nc3ccc4c(c3)C(=O)OC43c4ccc(O)cc4Oc4cc(O)ccc43)C(=O)O)C(=O)NCC3(c4cccs4)CCOCC3)c2)s1` [compound 23], for which the dissociation constant (Kd) in experiment [2] is 2.06 nM.

As a reminder, the Kd is the constant that tells how readily two partners part at equilibrium.
